Measurements: patent publication US6610681B1, “Neurotherapeutic clavulanate composition and method” (Revaax Pharmaceuticals, LLC, priority 1999, dated 2003)

Tested on: stress-induced release of cortisol
Experiment: novelty test, stress-induced release of cortisol
Assay type: in vivo, hamster
Conditions: 10 μg/kg IP
Procedure: The simple procedure of placing an adult male hamster into a novel environment for 5 min causes a significant, predictable increase in blood levels of cortisol (Weinberg and Wong 1986). This novelty test was used to assess the effects of CLAV on stress-induced release of cortisol. Two groups of male hamsters were treated IP with either CLAV (10 μg/kg, n=6), or saline vehicle (n=4). A third group (n=4) received no treatment or isolation stress and served as a control for basal levels of cortisol. Sixty min after treatment animals were taken from their home cage and placed into a novel cage for 5 min. Afterwards animals were sacrificed by decapitation and trunk blood collected for radioimmunoassay of cortisol. All animals were tested under reverse light:dark conditions four hrs into the dark cycle. Data were compared with a one-way ANOVA followed by Fisher PLSD post hoc tests.

SMILES: O=C(O)[C@H]1/C(=C/CO)O[C@@H]2CC(=O)N21 [CLAV, clavulanic acid]
- effect on stress release of cortisol (summary): no ostensible effect on the release of cortisol
- blood level of cortisol vs untreated, non-stressed control (60 min, novel cage 5 min): more than twice the blood level of cortisol
